Experimental data taken from patent US10697020B2, “MicroRNA-129 as a biomarker for colorectal cancer” (THE RESEARCH FOUNDATION FOR THE STATE UNIVERSITY OF NEW YORK, priority 2013, dated 2020).

What was measured:
[1] = test system: HCT116, RKO and SW480 cells; assay: Apoptosis assay (annexin V / propidium iodide, flow cytometry); type: cell-based, human; conditions: all colorectal cancer cell lines tested (HCT116, RKO, SW480); 48 h after transfection; vs negative miRNA
Protocol: (§1) HCT116, RKO and SW480 cells were plated in 6-well plates at 2×10^5, 1×10^5 and 1×10^5 per well, respectively. Twenty-four hours after plating, 100 nM of miR-129 precursor (Ambion, Carlsbad, Calif., USA) or siRNA against BCL2 (Dharmacon, Lafayette, Colo., USA) were transfected to the cells with oligofectamine (Invitrogen, Carlsbad, Calif., USA) in accordance with the manufacturer's protocol. Negative miRNA (Ambion) was also transfected as a negative control.
Forty-eight hours after transfection, cells were harvested, stained with propidium iodide and anti annexin-V antibody (Annexin V-FITC Apoptosis Detection kit, BD Biosciences, San Jose, Calif., USA) following the manufacturer's protocol, and stained cells were detected by flow cytometry. The experiments for the apoptosis assay were performed at least three times.

RKO cells = assay: Cell proliferation assay (WST-1), RKO; type: cell-based, human; conditions: day 5
Protocol: as §1
Twenty-four hours after transfection, cells were seeded in 96-well plates at a density of 2000 cells per well. The cell proliferation assay was performed on days 1, 3 and 5 by incubating 10 μl WST-1 (Roche Applied Science, Mannheim, Germany) in the culture medium for 1 h and reading the absorbance at 450 and 630 nm. The cell proliferation rate was calculated by […]. Experiments for the cell proliferation assay were performed at least three times.

Substance: miR-129: nucleic acid having a sequence of CUUUUUGCGGUCUGGGCUUGC (SEQ ID NO. 1); miR-129 precursor from Ambion used (chemistry not given here; listed as Homo sapiens)
- apoptosis (proportion of cells annexin V positive and propidium iodide negative) [1]: increased apoptosis significantly
- cell proliferation reduced compared to negative controls (RKO cells): 43.9%
